Measurements published in patent US12558345B2, “CHK1/2 inhibitors for use in the treatment of neuroblastomas and/or soft tissue sarcomas” (Eli Lilly and Company, priority 2015, dated 2026).
Like-named read-outs stand apart in the source and are kept apart here.

Columns and labels:
SJCRH-30 RMS xenograft = type: in vivo; conditions: SJCRH-30, RMS
Description: Expand human RMS cancer cells SJCRH-30 (St. Jude Children's Research Hospital) in culture, harvest, and inject 5×10^6 cells in 200 μL of HBSS subcutaneously into the right rear flank of female athymic nude mice (20-22 g, Harlan Laboratories).
For all studies, measure tumor growth and body weight twice per week beginning on the seventh day after implantation. When tumor size reaches 150-300 mm^3, randomize animals and group into groups of 4-7 animals. Prepare test compound in an appropriate vehicle (e.g. vehicle can be 20% Captisol® in sterile water) and administer subcutaneously for three consecutive days followed by a four day dosing holiday and repeat for a minimum of four weeks. Tumor response is determined by tumor volume measurement performed twice per week during the course of treatment.
The vehicle used in this study is 20% Captisol® in sterile water and is administered subcutaneously for three consecutive days followed by a four day dosing holiday and repeated for a minimum of four weeks. […] The treatment period lasts 4 weeks.

HT-29 cells = test: ECtfs (Two-Fold Sensitization) Assay; type: cell-based; conditions: gemcitabine alone
Description: An inhibitor of CHK1 can potentiate the anti-proliferative activity of gemcitabine (or other cytotoxics) through abrogation of the intra-S phase checkpoint, resulting in sustained and increased DNA damage. The capacity for continued tumor cell proliferation after DNA damage can be analyzed by determining the ability of cells to replicate their DNA. […] In this assay, cells are treated with gemcitabine, and then with the compound of Example 2. Following a recovery period, cells are assayed for the ability to incorporate radioactive thymidine into DNA during S phase. The ECtfs parameter is a measure of the concentration of a CHK1 inhibitor necessary to reduce by half the GI90 concentration of gemcitabine, measured in this assay in the absence of CHK1 inhibition. HT-29 cells (obtained from ATCC), are grown in RPMI 1640 plus (Gibco™) 10% (v/v) heat inactivated FBS. These cells are plated at 1.3×10^3 per well on Corning Costar 96-well tissue culture plates. After plating the cells, the tissue culture plates are held at room temperature for 45 minutes, before returning to 37° C. Plates are incubated for 24 hours prior to gemcitabine addition. Before gemcitabine addition, medium is removed from all wells and replaced with 150 μL per well of fresh RPMI medium. Gemcitabine stocks at 10 mM are prepared in PBS. Gemcitabine dilutions were prepared at 4× concentrations in RPMI medium and added to wells at 50 μL per well. The highest final concentration of gemcitabine used is 80 μM and dilutions proceed by four-fold steps. Two hours later, gemcitabine-containing medium is removed from the wells and replaced with 150 μL per well of fresh RPMI medium. […] The volume of addition is 50 μL. Compound dilutions proceed by two-fold steps, starting at 5000 nM. […] Twenty μL of this solution is added to each well, yielding 1 µCi/well of ^3H-thymidine. Cells are labeled for twenty-two hours. The medium containing ^3H-thymidine is thoroughly removed from the wells. The plates are then frozen at −20° C., for several hours. To harvest the DNA containing incorporated ^3H-thymidine, plates are thawed for several minutes, and then 120 μL per well of 0.1 N NaOH is added to each well. Each plate is then incubated at 37° C., with slow mixing on a rotator, for 10 minutes. DNA is harvested with a Filtermate 196 Harvester (PerkinElmer) and collected on 96-well Unifilter GF/C plates (PerkinElmer #6005174). The wells of the tissue culture plate on which cells had been labeled are washed with water (5×). The Unifilter plate membranes are washed with an additional 4.5 mL per well (3×1.0 mL and finally a 1.5 mL wash). The Unifi is sealed with a Backseal adhesive sheet (PerkinElmer), and the 50 μL/well of MicroScint-20 (Perkin Elmer) is added. Each plate is then sealed with a Topseal clear adhesive sheet (PerkinElmer). Plates are counted on a Topcount scintillation counter (PerkinElmer), at 1 minute per well. ^3H-thymidine counts per minute (cpm) are exported into Prism (GraphPad) for analysis and plotting. […] For plotting the data in Prism, the gemcitabine concentrations are transformed to log values, and dose-response curves are fit by non-linear regression. Neither top nor bottom fits are constrained. The ECtfs value is 0.3 nM.

## O=P1(NCCCl)OCCCN1CCCl (centres unmarked) [ifosphamide, reference compound]
SJCRH-30 RMS xenograft; comparator day 46
  % T/C: 34%

## CCc1c2c(nc3ccc(OC(=O)N4CCC(N5CCCCC5)CC4)cc13)-c1cc3c(c(=O)n1C2)COC(=O)[C@]3(O)CC [irinotecan, reference compound]
SJCRH-30 RMS xenograft; comparator day 46
  % T/C: 12%

## Nc1ccn([C@@H]2O[C@H](CO)[C@@H](O)C2(F)F)c(=O)n1 [gemcitabine, reference compound]
HT-29 cells; HT29 cells
  percentage of proliferation inhibition: 52%
HT-29 cells; Homo sapiens, HT-29, HT29 colon carcinoma cells
  EC50: 37 nM

## COc1cccc2c1C(=O)c1c(O)c3c(c(O)c1C2=O)C[C@@](O)(C(=O)CO)C[C@@H]3O[C@H]1C[C@H](N)[C@H](O)[C@H](C)O1 [Doxorubicin, reference compound]
SJCRH-30 RMS xenograft; comparator day 56
  % T/C: 16%
